Measurements: ChEMBL document CHEMBL1201862, “PubChem BioAssay data set” (2004)
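Values below derive from 48-hour exposures of cells grown in 96-well plates, with endpoints linearly interpolated between the two concentrations bracketing the appropriate inhibition level. At the GI50, growth is halved.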 Active and inactive are the calls of the source. No stated cut-off is given here; in the data, active = GI50 up to about 1.1 µM and inactive = higher.

Tests used:
Assay in all cases: NCI tumour cell line growth inhibition, 48 h
[1] = test system: DU-145
[2] = test system: M14
[3] = test system: SF-539
[4] = test system: MCF7
[5] = test system: NCI-H522
[6] = test system: K562
[7] = test system: OVCAR-8
[8] = test system: SK-OV-3
[9] = test system: HT-29
[10] = test system: UO-31
[11] = test system: HL-60
[12] = test system: SK-MEL-28
[13] = test system: NCI-H23
[14] = test system: Hs-578T
[15] = test system: SN12C
[16] = test system: OVCAR-5
[17] = test system: IGROV-1
[18] = test system: SF-268
[19] = test system: CCRF-CEM
[20] = test system: OVCAR-3

Compound | GI50 [1] | GI50 [2] | GI50 [3] | GI50 [4] | GI50 [5] | GI50 [6] | GI50 [7] | GI50 [8] | GI50 [9] | GI50 [10] | GI50 [11] | GI50 [12] | GI50 [13] | GI50 [14] | GI50 [15] | GI50 [16] | GI50 [17] | GI50 [18] | GI50 [19] | GI50 [20]
CCC(C)NC(=S)N/N=C(\C)c1nc2cccnc2[nH]1 (stereo unspecified) | 16.9 µM (inactive) | 12.7 µM (inactive) | 21.7 µM (inactive) | 2.1 µM (inactive) | 7.87 µM (inactive) | 2.24 µM (inactive) | 4 µM (inactive) | 10.3 µM (inactive) | 4.49 µM (inactive) | 2.32 µM (inactive) | 4.92 µM (inactive) | 33.9 µM (inactive) | 41.6 µM (inactive) | 19.3 µM (inactive) | 21.6 µM (inactive) | 13.4 µM (inactive) | 12.2 µM (inactive) | 8.36 µM (inactive) | 3.09 µM (inactive) | 3.25 µM (inactive)
CC(=O)NC1C(OCc2ccccc2)OC(CO)C(O)C1OCC(=O)N[C@@H](C)C(=O)N[C@H](CCC(=O)NCCCNc1c2ccccc2nc2cccc([N+](=O)[O-])c12)C(N)=O (stereo partly specified) | 0.0308 µM (active) | 0.0341 µM (active) | 0.0298 µM (active) | 0.018 µM (active) | < 0.0111 µM (active) | 0.0229 µM (active) | 0.0746 µM (active) | 0.334 µM (active) | < 0.0149 µM (active) | 0.123 µM (active) | 0.0559 µM (active) | 0.205 µM (active) | 0.0248 µM (active) | 0.156 µM (active) | 0.0397 µM (active) | 0.0718 µM (active) | 0.0506 µM (active) | – | 0.052 µM (active) | 0.0678 µM (active)
COc1ccccc1NC(=S)N/N=C/c1cccc(C)n1 | 4.29 µM (inactive) | 2.18 µM (inactive) | 4.89 µM (inactive) | 3.78 µM (inactive) | 0.279 µM (active) | 1.27 µM (inactive) | 4.07 µM (inactive) | 6.55 µM (inactive) | 4.17 µM (inactive) | 3.57 µM (inactive) | 3.15 µM (inactive) | 8.53 µM (inactive) | 5.83 µM (inactive) | 11.5 µM (inactive) | 7.1 µM (inactive) | > 27.4 µM (inactive) | 4.06 µM (inactive) | 6.97 µM (inactive) | 0.422 µM (active) | 1.26 µM (inactive)
COc1ccc(/C=C/C(=O)CC(=O)/C=C/c2ccc(OC)cc2)cc1 | 74.5 µM (inactive) | 77.8 µM (inactive) | 30.3 µM (inactive) | 64.9 µM (inactive) | 7.94 µM (inactive) | 32.7 µM (inactive) | 21.4 µM (inactive) | > 100 µM (inactive) | 23.1 µM (inactive) | 34.8 µM (inactive) | 25.6 µM (inactive) | 36.4 µM (inactive) | 8.53 µM (inactive) | 36.4 µM (inactive) | 61.5 µM (inactive) | 46.2 µM (inactive) | > 100 µM (inactive) | 46.3 µM (inactive) | 20.9 µM (inactive) | 23.1 µM (inactive)
Cc1ccc2c(=O)c3c(O)c4c(cc3n(C)c2c1)OC(C)(C)C=C4 | > 10 µM (inactive) | > 10 µM (inactive) | > 10 µM (inactive) | > 10 µM (inactive) | > 10 µM (inactive) | > 10 µM (inactive) | > 10 µM (inactive) | > 10 µM (inactive) | > 10 µM (inactive) | – | > 10 µM (inactive) | > 10 µM (inactive) | > 10 µM (inactive) | > 10 µM (inactive) | > 10 µM (inactive) | > 10 µM (inactive) | > 10 µM (inactive) | > 10 µM (inactive) | > 10 µM (inactive) | > 10 µM (inactive)
CC(=O)/C=N/CC(=O)O | > 100 µM (inactive) | > 100 µM (inactive) | > 100 µM (inactive) | > 100 µM (inactive) | > 100 µM (inactive) | > 100 µM (inactive) | > 100 µM (inactive) | > 100 µM (inactive) | > 100 µM (inactive) | – | > 100 µM (inactive) | > 100 µM (inactive) | > 100 µM (inactive) | > 100 µM (inactive) | > 100 µM (inactive) | > 100 µM (inactive) | > 100 µM (inactive) | > 100 µM (inactive) | > 100 µM (inactive) | > 100 µM (inactive)
CCc1cccc(CC)c1Nc1nc2c(s1)C(=O)c1ccccc1C2=O | 21.6 µM (inactive) | 17.4 µM (inactive) | 24.2 µM (inactive) | 22.4 µM (inactive) | 23.4 µM (inactive) | 28 µM (inactive) | – | 27.3 µM (inactive) | – | 15.4 µM (inactive) | 26.4 µM (inactive) | 19.1 µM (inactive) | 15.3 µM (inactive) | 22.2 µM (inactive) | 15.8 µM (inactive) | 20.3 µM (inactive) | 12.2 µM (inactive) | 16.9 µM (inactive) | 38.9 µM (inactive) | 13.7 µM (inactive)
OC(c1ccccc1)c1c(-c2ccccc2)[nH]c(-c2ccccc2)c1C(O)c1ccccc1 (stereo unspecified) | 5.28 µM (inactive) | 3.66 µM (inactive) | 2.95 µM (inactive) | 3.78 µM (inactive) | 3.27 µM (inactive) | 2.03 µM (inactive) | – | 4.25 µM (inactive) | 3.99 µM (inactive) | 1.45 µM (inactive) | 2.28 µM (inactive) | 3.4 µM (inactive) | 3.52 µM (inactive) | 3.76 µM (inactive) | 2.38 µM (inactive) | 2.77 µM (inactive) | 3.18 µM (inactive) | 4.16 µM (inactive) | 2.65 µM (inactive) | 2.5 µM (inactive)
CC(C)[C@H](NC(=O)OCc1ccccc1)C(=O)N[C@H](/C=C/C(=O)OC(C)(C)C)CO | > 100 µM (inactive) | > 100 µM (inactive) | > 100 µM (inactive) | > 100 µM (inactive) | > 100 µM (inactive) | – | > 100 µM (inactive) | > 100 µM (inactive) | > 100 µM (inactive) | – | 57.1 µM (inactive) | > 100 µM (inactive) | > 100 µM (inactive) | > 100 µM (inactive) | > 100 µM (inactive) | > 100 µM (inactive) | > 100 µM (inactive) | > 100 µM (inactive) | 28.1 µM (inactive) | > 100 µM (inactive)
CSc1c(C#N)c(O)nc(N)c1C(=O)Nc1ccc(C)cc1 | > 100 µM (inactive) | > 100 µM (inactive) | > 100 µM (inactive) | > 100 µM (inactive) | 71.9 µM (inactive) | > 100 µM (inactive) | > 100 µM (inactive) | > 100 µM (inactive) | > 100 µM (inactive) | 31.4 µM (inactive) | > 100 µM (inactive) | > 100 µM (inactive) | 90.6 µM (inactive) | > 100 µM (inactive) | > 100 µM (inactive) | > 100 µM (inactive) | – | > 100 µM (inactive) | 97.5 µM (inactive) | > 100 µM (inactive)
O=C(Cc1nc2ccccc2[nH]c1=O)c1c[nH]c2ccccc12 | 15.2 µM (inactive) | 15.3 µM (inactive) | 19.2 µM (inactive) | 11.6 µM (inactive) | 14.8 µM (inactive) | 6.07 µM (inactive) | 14.1 µM (inactive) | 18.1 µM (inactive) | 6.08 µM (inactive) | 11.9 µM (inactive) | 10.3 µM (inactive) | – | 20.4 µM (inactive) | 49 µM (inactive) | 13.8 µM (inactive) | 23.6 µM (inactive) | 20.3 µM (inactive) | > 100 µM (inactive) | 4.3 µM (inactive) | 14 µM (inactive)
CC1(CC2=C(C(=O)NCCO[Si](C)(C)C(C)(C)C)C3(OCCO3)C2=O)OCCO1 | > 100 µM (inactive) | > 100 µM (inactive) | > 100 µM (inactive) | > 100 µM (inactive) | 28.4 µM (inactive) | – | > 100 µM (inactive) | > 100 µM (inactive) | > 100 µM (inactive) | > 100 µM (inactive) | 29.1 µM (inactive) | > 100 µM (inactive) | 63.5 µM (inactive) | > 100 µM (inactive) | > 100 µM (inactive) | > 100 µM (inactive) | 92.7 µM (inactive) | > 100 µM (inactive) | 54.2 µM (inactive) | > 100 µM (inactive)
O=C(O)c1ccc(P(=O)(O)c2ccc(C(=O)O)cc2Br)c(Br)c1 | > 100 µM (inactive) | > 100 µM (inactive) | > 100 µM (inactive) | > 100 µM (inactive) | > 100 µM (inactive) | > 100 µM (inactive) | > 100 µM (inactive) | > 100 µM (inactive) | – | > 100 µM (inactive) | > 100 µM (inactive) | > 100 µM (inactive) | > 100 µM (inactive) | > 100 µM (inactive) | > 100 µM (inactive) | – | > 100 µM (inactive) | > 100 µM (inactive) | > 10 µM (inactive) | > 100 µM (inactive)
CC(=O)c1sc2c(c1OC(=O)c1cccs1)c(=O)n(-c1ccccc1)c(=S)n2-c1ccccc1 | 26.8 µM (inactive) | 3.24 µM (inactive) | 2.41 µM (inactive) | 21 µM (inactive) | 0.359 µM (active) | 35.4 µM (inactive) | 5.01 µM (inactive) | 21.9 µM (inactive) | 3.21 µM (inactive) | – | 26 µM (inactive) | 2.99 µM (inactive) | 19.3 µM (inactive) | 3.66 µM (inactive) | 3.94 µM (inactive) | 3.29 µM (inactive) | 18.6 µM (inactive) | 6.07 µM (inactive) | 3.9 µM (inactive) | 23 µM (inactive)
